According to article PMC8151276, “An Integrated Approach toward NanoBRET Tracers for Analysis of GPCR Ligand Engagement” (Molecules, 2021):

How the values were obtained:
Format in all cases: binding
PTGER3 = target: T1, PTGER3 (Homo sapiens, UniProt P43115); assay: NanoBRET screen HiBiT-PTGER3 in HEK293
T1 construct: purchased Promega (in-house HiBiT-GPCR construct library, NanoBRET)
T1 sequence (P43115 1-390): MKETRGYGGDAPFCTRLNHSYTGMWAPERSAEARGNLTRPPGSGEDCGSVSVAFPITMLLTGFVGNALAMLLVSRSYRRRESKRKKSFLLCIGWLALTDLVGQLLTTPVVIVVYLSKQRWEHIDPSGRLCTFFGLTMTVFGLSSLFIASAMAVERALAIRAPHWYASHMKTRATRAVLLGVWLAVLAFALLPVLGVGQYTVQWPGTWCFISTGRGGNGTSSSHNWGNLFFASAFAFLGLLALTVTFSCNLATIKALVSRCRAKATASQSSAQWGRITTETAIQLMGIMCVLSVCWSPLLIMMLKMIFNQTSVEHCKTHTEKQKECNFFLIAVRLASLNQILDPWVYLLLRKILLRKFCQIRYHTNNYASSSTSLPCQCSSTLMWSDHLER
Protocol: (§1) Each tracer candidate was screened across the entire library of HiBiT-GPCR constructs using NanoBRET as the detection modality. As depicted in Figure 4A, the specificity of interactions was evaluated through decrease in BRET due to competitive displacement of a bound tracer by excess parental compound. Each tracer was analyzed for binding to each HiBiT-GPCR fusion in the absence and in the presence of competing parental compound. Briefly, HEK293 cells were transfected with HiBiT-GPCR constructs diluted into promoterless DNA to reduce expression and maximize translocation to the cell surface. Each tracer candidate was then screened at concentrations of 1 μM and 0.1 μM across cells expressing these fusions. Cells were treated for 1.5 h with tracer either alone or in the presence of 20 μM competing parental compound (i.e., control). BRET was measured upon addition of purified LgBiT and subsequent complementation with HiBiT genetically fused to a GPCR. The specificity of interactions was assessed through a decrease in BRET signal due to competitive displacement of the bound tracer. To further gauge the robustness of these interactions, the fold response over the control (i.e., BRETtracer/BRETcontrol) was calculated. We chose a 1.5-fold response, which translates to ≥7-fold signal over noise as the minimal threshold required to score an interaction as positive. […]. Below we highlight the screening results obtained for our exemplary fluorescent tracers based on Clozapine, Amitriptyline and AZD1283.
(§2) HiBiT-GPCR DNA constructs were diluted in 10 mM Tris pH 8 to a final concentration of 0.01 μg/μL, arrayed in 96-well plates and stored at −20 °C. For transfection, HEK293 cells were suspended in Opti-MEM (without phenol red) supplemented with 2% fetal bovine serum (Seradigm) and 100 units/mL penicillin–streptomycin (Gibco) at a final concentration of 220,000 cells/mL and dispensed into white 96-well plates at 90 μL/well. Subsequent transfections and screens were carried using an Agilent Bravo Automated Liquid Handling Platform. First, the 96-well HiBiT DNA arrays were diluted 25-fold in Opti-MEM (without serum or phenol red) to a final concentration of 0.0004 μg/μL and 20 μL of the diluted DNAs were transferred into new 96-well plates. Next, promoterless carrier DNA (1 μg/μL) was diluted 25-fold (0.04 μg/μL) and then dispensed into the diluted arrays at 20 μL/well. Following brief mixing, Viafect transfection reagent (Promega) diluted 16-fold into Opti-MEM was dispensed into the plates at 40 μL/well. After mixing by pipetting, plates were incubated for 10 min on the pipetting station deck. The DNA-transfection reagent complexes were then added to plates containing cells. To facilitate the screen, 10 μL of DNA-transfection reagent complexes were added in duplicates to the top 4 and bottom 4 rows, resulting in two identical 48-well arrays per plate. Plates with transfected cells were incubated for 18–20 h at 37 °C/5% CO2. A screen of each tracer across the entire library using two different concentrations requires duplicate plates of transfected cells. Depending on the number of tracers being screened, transfections can be scaled up using the same ratios. The next day, for each tracer, four 20× screening solutions in tracer dilution buffer (Promega) were prepared: two duplicates at final concentration of 20 μM and two duplicates at a final concentration of 2 μM. A competing unmodified compound was added to one of each duplicate at a final concentration of 400 μM. The four resulting solutions were diluted 4-fold in Opti-MEM without serum or phenol red to generate 5× solutions (5 µM and 0.5 µM tracer +/− 100 μM competing compound). To screen the library, a BioTek MultiFlo FX liquid dispenser was used to dispense 22.5 µL of tracer solution to the top 4 rows and 22.5 µL tracer + competing compound solution to the 4 bottom rows. Plates were briefly mixed on an orbital shaker and incubated for 1.5 h at room temperature. […]

P2RY12 = target: T2, P2RY12 (Homo sapiens, UniProt Q9H244); assay: NanoBRET screen HiBiT-P2RY12 in HEK293
T2 construct: purchased Promega (in-house HiBiT-GPCR construct library, NanoBRET)
T2 sequence (Q9H244 whole entry, one chain of several): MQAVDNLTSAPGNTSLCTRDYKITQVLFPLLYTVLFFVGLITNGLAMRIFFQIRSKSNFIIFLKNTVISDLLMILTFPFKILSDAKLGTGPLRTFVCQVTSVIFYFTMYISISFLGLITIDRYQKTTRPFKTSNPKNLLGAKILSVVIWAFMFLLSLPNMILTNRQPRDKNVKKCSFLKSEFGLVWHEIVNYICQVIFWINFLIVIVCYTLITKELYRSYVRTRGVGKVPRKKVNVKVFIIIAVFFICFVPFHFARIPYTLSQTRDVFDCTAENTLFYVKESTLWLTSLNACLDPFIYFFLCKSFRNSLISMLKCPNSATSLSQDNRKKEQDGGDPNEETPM
Protocol: as §1, §2

NPY2R = target: T3, NPY2R (Homo sapiens, UniProt P49146); assay: NanoBRET screen HiBiT-NPY2R in HEK293
T3 construct: purchased Promega (in-house HiBiT-GPCR construct library, NanoBRET)
T3 sequence (P49146 1-381): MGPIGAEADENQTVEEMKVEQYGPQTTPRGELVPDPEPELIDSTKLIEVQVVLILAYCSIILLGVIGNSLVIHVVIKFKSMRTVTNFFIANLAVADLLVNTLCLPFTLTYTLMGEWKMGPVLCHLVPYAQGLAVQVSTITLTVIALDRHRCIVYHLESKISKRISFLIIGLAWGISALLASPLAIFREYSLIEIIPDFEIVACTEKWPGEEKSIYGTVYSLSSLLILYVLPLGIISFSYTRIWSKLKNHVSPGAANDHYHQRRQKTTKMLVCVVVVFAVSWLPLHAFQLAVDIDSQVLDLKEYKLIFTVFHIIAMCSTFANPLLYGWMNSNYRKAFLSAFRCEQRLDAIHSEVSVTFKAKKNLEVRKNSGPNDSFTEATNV
Protocol: as §1, §2

MTNR1B = target: T4, MTNR1B (Homo sapiens, UniProt P49286); assay: NanoBRET screen HiBiT-MTNR1B in HEK293
T4 construct: purchased Promega (in-house HiBiT-GPCR construct library, NanoBRET)
T4 sequence (P49286 1-362): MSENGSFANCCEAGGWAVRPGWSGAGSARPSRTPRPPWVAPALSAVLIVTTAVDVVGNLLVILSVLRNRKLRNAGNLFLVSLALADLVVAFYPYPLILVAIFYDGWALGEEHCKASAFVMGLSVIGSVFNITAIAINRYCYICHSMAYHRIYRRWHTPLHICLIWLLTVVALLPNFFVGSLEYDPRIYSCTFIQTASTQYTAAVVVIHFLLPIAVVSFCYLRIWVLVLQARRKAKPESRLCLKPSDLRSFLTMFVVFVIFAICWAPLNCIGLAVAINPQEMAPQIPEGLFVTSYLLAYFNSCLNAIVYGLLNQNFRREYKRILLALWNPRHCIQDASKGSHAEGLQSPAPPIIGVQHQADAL
Protocol: as §1, §2

With `COc1ccc2c(n1)c(CCNC(C)=O)cn2CCNC(=O)CCc1ccc2n1[B-](F)(F)[N+]1=C(c3ccc[nH]3)C=CC1=C2` [Azamelatonin-1-NB590] the “NanoBRET Fold Response” value (PTGER3; 0.1μM tracer) was 1.00, the “NanoBRET Fold Response” value (PTGER3; 1μM tracer) was 1.25 and the “NanoBRET Fold Response” value (P2RY12; 0.1μM tracer) was 1.02. The “NanoBRET Fold Response” value (P2RY12; 1μM tracer) was 1.02, the “NanoBRET Fold Response” value (NPY2R; 0.1μM tracer) was 1.19 and the “NanoBRET Fold Response” value (NPY2R; 1μM tracer) was 0.85. The “NanoBRET Fold Response” value (MTNR1B; 0.1μM tracer) was 1.07 and the “NanoBRET Fold Response” value (MTNR1B; 1μM tracer) was 1.12.
With `COc1ccc2[nH]c(-c3ccc(CNC(=O)CCOCCOCCOCCOCCNC(=O)CCc4ccc5n4[B-](F)(F)[N+]4=C(c6ccc[nH]6)C=CC4=C5)cc3)c(CCNC(C)=O)c2n1` [AzomelatoninICO9-2-NB590] the “NanoBRET Fold Response” value (PTGER3; 0.1μM tracer) was 1.04, the “NanoBRET Fold Response” value (PTGER3; 1μM tracer) was 1.20 and the “NanoBRET Fold Response” value (P2RY12; 0.1μM tracer) was 1.15. The “NanoBRET Fold Response” value (P2RY12; 1μM tracer) was 1.05, the “NanoBRET Fold Response” value (NPY2R; 0.1μM tracer) was 0.99 and the “NanoBRET Fold Response” value (NPY2R; 1μM tracer) was 0.88. The “NanoBRET Fold Response” value (MTNR1B; 0.1μM tracer) was 2.05 and the “NanoBRET Fold Response” value (MTNR1B; 1μM tracer) was 2.32.
With `O=C(CCOCCOCCOCCOCCNC(=O)CCc1ccc2n1[B-](F)(F)[N+]1=C(c3ccc[nH]3)C=CC1=C2)NCCCN1CCN(C2=Nc3cc(Cl)ccc3Nc3ccccc32)CC1` [Clozapine-a-2-NB590] the “NanoBRET Fold Response” value (PTGER3; PTGER3, 0.1μM tracer) was 1.03, the “NanoBRET Fold Response” value (PTGER3; PTGER3, 1μM tracer) was 1.12 and the “NanoBRET Fold Response” value (P2RY12; P2RY12, 0.1μM tracer) was 1.00. The “NanoBRET Fold Response” value (P2RY12; P2RY12, 1μM tracer) was 0.94, the “NanoBRET Fold Response” value (NPY2R; NPY2R, 0.1μM tracer) was 0.94 and the “NanoBRET Fold Response” value (NPY2R; NPY2R, 1μM tracer) was 1.11. For the same compound, the “NanoBRET Fold Response” value (MTNR1B; MTNR1B, 0.1μM tracer) was 1.06 and the “NanoBRET Fold Response” value (MTNR1B; MTNR1B, 1μM tracer) was 0.97.
`CN1CCN(C2=Nc3cc(Cl)ccc3Nc3ccc(CNC(=O)CCOCCOCCOCCOCCNC(=O)CCc4ccc5n4[B-](F)(F)[N+]4=C(c6ccc[nH]6)C=CC4=C5)cc32)CC1` [Clozapine-b-2-NB590] was tested, and the “NanoBRET Fold Response” value (PTGER3; PTGER3, 0.1μM tracer) was 0.97, the “NanoBRET Fold Response” value (PTGER3; PTGER3, 1μM tracer) was 0.97 and the “NanoBRET Fold Response” value (P2RY12; P2RY12, 0.1μM tracer) was 1.00. For the same compound, the “NanoBRET Fold Response” value (P2RY12; P2RY12, 1μM tracer) was 0.97, the “NanoBRET Fold Response” value (NPY2R; NPY2R, 0.1μM tracer) was 1.00 and the “NanoBRET Fold Response” value (NPY2R; NPY2R, 1μM tracer) was 1.02. The “NanoBRET Fold Response” value (MTNR1B; MTNR1B, 0.1μM tracer) was 0.95 and the “NanoBRET Fold Response” value (MTNR1B; MTNR1B, 1μM tracer) was 1.05.
In the case of `CN1CCN(C2=Nc3cc(Cl)ccc3N(CC(=O)NCCOCCOCCOCCOCCNC(=O)CCc3ccc4n3[B-](F)(F)[N+]3=C(c5ccc[nH]5)C=CC3=C4)c3ccccc32)CC1` [Clozapine-c-2-NB590], the “NanoBRET Fold Response” value (PTGER3; PTGER3, 0.1μM tracer) was 1.00, the “NanoBRET Fold Response” value (PTGER3; PTGER3, 1μM tracer) was 1.11 and the “NanoBRET Fold Response” value (P2RY12; P2RY12, 0.1μM tracer) was 0.99. The “NanoBRET Fold Response” value (P2RY12; P2RY12, 1μM tracer) was 0.95, the “NanoBRET Fold Response” value (NPY2R; NPY2R, 0.1μM tracer) was 1.01 and the “NanoBRET Fold Response” value (NPY2R; NPY2R, 1μM tracer) was 0.99. For the same compound, the “NanoBRET Fold Response” value (MTNR1B; MTNR1B, 0.1μM tracer) was 0.98 and the “NanoBRET Fold Response” value (MTNR1B; MTNR1B, 1μM tracer) was 1.02.
`COc1ccccc1N1CCN(CCCCN2C(=O)c3ccc(CNC(=O)CCOCCOCCOCCOCCNC(=O)CCc4ccc5n4[B-](F)(F)[N+]4=C(c6ccc[nH]6)C=CC4=C5)cc3C2=O)CC1` [NAN-190-2-NB590] was tested, and the “NanoBRET Fold Response” value (PTGER3; PTGER3, tracer 0.1μM) was 1.00, the “NanoBRET Fold Response” value (PTGER3; PTGER3, tracer 1μM) was 1.02 and the “NanoBRET Fold Response” value (NPY2R; NPY2R, tracer 0.1μM) was 1.00. The “NanoBRET Fold Response” value (NPY2R; NPY2R, tracer 1μM) was 0.92 and the “NanoBRET Fold Response” value (MTNR1B; MTNR1B, tracer 1μM) was 1.00.
